From PubChem BioAssay AID652273 (Sanford-Burnham Center for Chemical Genomics, 2013) come the findings set out here.

Molecules are shown by their SMILES. Activity calls are given as the source filed them.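 How the source made its calls: active means compounds lowering heat-shock reporter fluorescence with mean IC50 at or below 15 µM, flagged as SKN-1 screen artifacts; inactive means the rest.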

The test system of the test is C. elegans VP596 hsp-16.2 GFP/RFP after heat shock. Briefly: inhibitors of heat-induced hsp-16.2 GFP signal – whole organism, C. elegans VP596, GFP/RFP ratio, round 2, counter-screen for SKN-1 inhibitor project, SAR follow-up (AID 652273). On the technique in general: The purpose of a counterscreen is to sort out artefacts and off-target activity.
Regarding `CCOc1cc(CN(C)C2CCCC2)cc(Cl)c1OCc1ccc(Cl)cc1`, the IC50 is > 64 µM (inactive).

Turning to `CCOc1cc(CN2CCN(C)CC2)cc(Cl)c1OCc1ccc(F)cc1`, the IC50 was > 64 µM (inactive).

As to `C=CCNCc1cc(Cl)c(OCc2ccc(Cl)cc2)c(OCC)c1`, the IC50 was > 64 µM (inactive).

For `CCOc1cc(CNC2CC2)cc(Cl)c1OCc1ccc(Cl)cc1F`, the IC50 is > 64 µM (inactive).

Regarding `CCOc1cc(CN2CCCCC2)cc(Cl)c1OCc1ccc(Cl)cc1`, the IC50 was > 64 µM (inactive).

With `CCOc1cc(CN2CCOCC2)cc(Cl)c1OCc1ccc(F)cc1`, the IC50 is > 64 µM (inactive).

In the case of `COc1cc(CNC2CCCC2)cc(Br)c1OCc1ccc(Cl)cc1`, the IC50 is > 64 µM (inactive).

For `CCOc1cc(CNC2CCCC2)cc(Cl)c1OCc1ccc(Cl)cc1F`, the IC50 was > 64 µM (inactive).

As for `Cc1cc(CNC2CCCC2)cc(C)c1OCc1ccc(Cl)cc1`, the IC50 was > 64 µM (inactive).

Turning to `CCOc1cc(CN2CCCCC2)cc(Cl)c1OCc1ccc(F)cc1`, the IC50 was > 64 µM (inactive).

`CCOc1cc(CN2CCOCC2)cc(Cl)c1OCc1ccc(Cl)cc1`: the IC50 is > 64 µM (inactive).

For the compound `CCOc1cc(CN2CCCC2)cc(Cl)c1OCc1ccc(Cl)cc1`, the IC50 was > 64 µM (inactive).

On to `CCOc1cc(CN2CCN(C)CC2)cc(Cl)c1OCc1ccc(Cl)cc1`, for which the IC50 is > 64 µM (inactive).

As to `C#CCNCc1cc(Cl)c(OCc2ccc(Cl)cc2)c(OCC)c1`, the IC50 was > 64 µM (inactive).

Consider `CCOc1cc(CNC2CC2)cc(Cl)c1OCc1ccc(Br)cc1`, for which the IC50 was > 64 µM (inactive).

As for `CCOc1cc(CNC)cc(Cl)c1OCc1ccc(Cl)cc1`, the IC50 was > 64 µM (inactive).

`CCOc1cc(CNC2CC2)cc(Cl)c1OCc1ccc(Cl)cc1`: the IC50 was > 64 µM (inactive).

For the compound `CCOc1cc(CNC2CCCC2)cc(Cl)c1OCc1ccc(C#N)cc1`, the IC50 was > 64 µM (inactive).

Regarding `CCOc1cc(CNC2CCCC2)cc(Cl)c1OCc1ccc(Br)cc1`, the IC50 is > 64 µM (inactive).

Consider `COc1cc(CNC2CCCC2)cc(F)c1OCc1ccc(Cl)cc1`, for which the IC50 is > 64 µM (inactive).

On to `CCOc1cc(CNC2CC2)cc(Cl)c1OCc1ccc(C#N)cc1`, for which the IC50 is > 64 µM (inactive).

On to `CCCNCc1cc(Cl)c(OCc2ccc(Cl)cc2)c(OCC)c1`, for which the IC50 was > 64 µM (inactive).

`CCOc1cc(CNCC2CC2)cc(Cl)c1OCc1ccc(Cl)cc1`: the IC50 is > 64 µM (inactive).

For `CCOc1cc(CN(C(C)=O)C2CCCC2)cc(Cl)c1OCc1ccc(Cl)cc1`, the IC50 is > 64 µM (inactive).

For `CCOc1cc(CN2CCCC2)cc(Cl)c1OCc1ccc(F)cc1`, the IC50 is > 64 µM (inactive).

For `Clc1ccc(COc2c(Cl)cc(CNC3CCCC3)cc2Cl)cc1`, the IC50 was > 64 µM (inactive).

Turning to `COc1cc(CNC2CCCC2)cc(Cl)c1OCc1ccc(Cl)cc1`, the IC50 is > 64 µM (inactive).

One may read the IC50 as the midpoint of a concentration-inhibition curve.
